Like-named read-outs stand apart in the source and are kept apart here.
Experiments:
[1] = cited from earlier work
[2] = test system: onychomycosis; conditions: continuous therapy (ingestion); cited from earlier work
[3] = test system: Onychomycosis fungi; test: Addition of undecylenic acid or hydroquinone to cyanoacrylate ester on infected nails; assay type: in vivo; conditions: for effect on yellow color of infected nails: added to cyanoacrylate ester

Compound: 2-ETHYL CYANO ACRYLATE
- Soluble In ([1]; Cured State): Pacer X-8 Debonder, Acetone,
- Soluble In ([1]; Liquid State): Acetone, MEK, Nitromethane

Compound: CN(C/C=C/C#CC(C)(C)C)Cc1cccc2ccccc12 [Lamisil, terbinafine]
- Cure of all nails (share of subjects) [2]: 25%
- complete cure [2]: 41%
- mycological cure [2]: 71%

Compound: Oc1ccc(O)cc1 [hydroquine]
- effect on yellow color of infected nails [3]: remove the yellow-color of infected nails

Compound: C=CCCCCCCCCC(=O)O [undecylenic acid]
- effect on yellow color of infected nails [3]: remove the yellow-color of infected nails
- effect on spread of infection ([3]; addition of 1-12%, preferably 2-10%): inhibit the spread of infection
